For the assay, the target named is JAK1 (Homo sapiens (Human), UniProt P23458). Briefly: Analysis of JAK1 activity inhibition ability (ADP-Glo Kinase Assay). It counts as biochemical. Particulars: JAK1 enzyme, ADP-Glo luminescence, ATP 250 uM, IRS-itide substrate, 30° C. 40 minutes; read-out: IC50. The gist of the method:
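ADP-Glo luminescence read-out of ADP production, with IC50 taken as the concentration halving JAK1 activity relative to control. Enzyme was incubated 40 min at 30 °C with compound, IRS-itide (40 ng/mL) and ATP (250 uM), concentrations as prepared in pH 7.5 Tris-HCl/MgCl2/BSA/DTT buffer.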
For orientation: ADP-Glo first removes unused ATP, then detects ADP through luciferase.

The text below walks through data of US11524968B2, “Heterocyclic compound as a protein kinase inhibitor” (HK inno.N Corporation, priority 2017, dated 2022).

pIC50: −log10 of the molar value.

Sequence of JAK1 (P23458 whole entry): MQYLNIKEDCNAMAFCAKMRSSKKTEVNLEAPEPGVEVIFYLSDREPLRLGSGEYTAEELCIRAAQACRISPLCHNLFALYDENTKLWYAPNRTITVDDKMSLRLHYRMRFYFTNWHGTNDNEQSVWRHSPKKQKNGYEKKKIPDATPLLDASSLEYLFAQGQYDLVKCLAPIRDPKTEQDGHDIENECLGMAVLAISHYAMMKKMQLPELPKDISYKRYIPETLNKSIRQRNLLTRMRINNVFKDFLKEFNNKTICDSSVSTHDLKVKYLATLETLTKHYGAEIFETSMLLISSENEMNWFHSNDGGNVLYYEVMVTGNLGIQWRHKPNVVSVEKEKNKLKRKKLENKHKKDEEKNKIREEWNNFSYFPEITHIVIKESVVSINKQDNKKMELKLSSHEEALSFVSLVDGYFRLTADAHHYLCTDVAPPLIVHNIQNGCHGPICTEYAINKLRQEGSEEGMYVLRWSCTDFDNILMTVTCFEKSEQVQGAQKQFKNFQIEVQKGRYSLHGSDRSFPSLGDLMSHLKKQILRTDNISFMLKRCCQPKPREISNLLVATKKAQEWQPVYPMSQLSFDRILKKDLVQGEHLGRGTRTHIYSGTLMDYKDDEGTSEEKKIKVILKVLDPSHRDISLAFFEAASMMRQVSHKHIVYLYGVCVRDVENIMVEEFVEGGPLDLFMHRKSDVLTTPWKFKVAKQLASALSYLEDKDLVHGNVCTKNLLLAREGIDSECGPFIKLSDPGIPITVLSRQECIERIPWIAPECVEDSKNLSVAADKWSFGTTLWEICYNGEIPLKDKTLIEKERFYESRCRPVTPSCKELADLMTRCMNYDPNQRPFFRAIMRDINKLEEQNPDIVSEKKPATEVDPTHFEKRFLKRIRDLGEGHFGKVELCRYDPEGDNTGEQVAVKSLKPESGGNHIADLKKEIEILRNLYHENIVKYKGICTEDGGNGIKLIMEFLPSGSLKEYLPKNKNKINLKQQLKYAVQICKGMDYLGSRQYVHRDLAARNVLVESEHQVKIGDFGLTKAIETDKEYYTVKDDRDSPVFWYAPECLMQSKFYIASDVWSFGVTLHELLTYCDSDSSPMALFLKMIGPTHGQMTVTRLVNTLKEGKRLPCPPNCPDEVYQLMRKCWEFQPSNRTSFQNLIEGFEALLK

A word on the pIC50: it is −log10 of the IC50, conventionally taken in molar units. Consider `N#CCC(=O)N1C=C(c2cc(NC(=O)C3CC3)nc3[nH]ccc23)CCC1` [Example 419, N-(4-(1-(2-cyanoacetyl)-1,4,5,6-tetrahydropyridin-3-yl)-1H-pyrrolo[2,3-b]pyridin-6-yl)cyclopropanecarboxamide], for which the pIC50 was less than 6.70.

Turning to `N#CCC(=O)N1CCC=C(c2cc(NC(=O)C3CC3)nc3[nH]ccc23)C1` [Example 420, N-(4-(1-(2-cyanoacetyl)-1,2,5,6-tetrahydropyridin-3-yl)-1H-pyrrolo[2,3-b]pyridin-6-yl)cyclopropanecarboxamide], the negative logarithm of the IC50 (pIC50) was 6.70 to 7.70.

In the case of `N#CCCC(=O)N1CCC=C(c2cc(NC(=O)C3CC3)nc3[nH]ccc23)C1` [Example 421, N-(4-(1-(3-cyanopropanoyl)-1,2,5,6-tetrahydropyridin-3-yl)-1H-pyrrolo[2,3-b]pyridin-6-yl)cyclopropanecarboxamide], the pIC50 is 6.70 to 7.70.

On to `N#CCC(=O)N1CC=C(c2cc(NC(=O)C3CC3)nc3[nH]ccc23)CCC1` [Example 422, N-(4-(1-(2-cyanoacetyl)-2,5,6,7-tetrahydro-1H-azepin-4-yl)-1H-pyrrolo[2,3-b]pyridin-6-yl)cyclopropanecarboxamide], for which the pIC50 was greater than 7.70.

`O=C(Nc1cc(C2=CCN(C(=O)c3ccnc(F)c3)CCC2)c2cc[nH]c2n1)C1CC1` [Example 423, N-(4-(1-(2-fluoroisonicotinoyl)-2,5,6,7-tetrahydro-1H-azepin-4-yl)-1H-pyrrolo[2,3-b]pyridin-6-yl)cyclopropanecarboxamide]: the pIC50 was greater than 7.70.

Turning to `O=C(Nc1cc(C2=CCN(C(=O)c3ccnc(F)c3F)CCC2)c2cc[nH]c2n1)C1CC1` [Example 424, N-(4-(1-(2,3-difluoroisonicotinoyl)-2,5,6,7-tetrahydro-1H-azepin-4-yl)-1H-pyrrolo[2,3-b]pyridin-6-yl)cyclopropanecarboxamide], the pIC50 is greater than 7.70.

As for `N#CCC(=O)N1CC=C(c2nc(NC(=O)C3CC3)nc3[nH]ccc23)CC1` [Example 425, N-(4-(1-(2-cyanoacetyl)-1,2,3,6-tetrahydropyridin-4-yl)-7H-pyrrolo[2,3-d]pyrimidin-2-yl)cyclopropanecarboxamide], the pIC50 was 6.70 to 7.70.

Regarding `N#CCC(=O)N1CC=C(c2cc(NC(=O)C3CC3)nc3[nH]ccc23)C1` [Example 426, N-(4-(1-(2-cyanoacetyl)-2,5-dihydro-1H-pyrrol-3-yl)-1H-pyrrolo[2,3-b]pyridin-6-yl)cyclopropanecarboxamide], the negative logarithm of the IC50 (pIC50) is less than 6.70.

Turning to `N#CCCC(=O)N1CC=C(c2cc(NC(=O)C3CC3)nc3[nH]ccc23)C1` [Example 427, N-(4-(1-(3-cyanopropanoyl)-2,5-dihydro-1H-pyrrol-3-yl)-1H-pyrrolo[2,3-b]pyridin-6-yl)cyclopropanecarboxamide], the pIC50 is less than 6.70.

Turning to `O=C(Nc1cc(C2=CCN(C(=O)CC(F)(F)F)C2)c2cc[nH]c2n1)C1CC1` [Example 428, N-(4-(1-(3,3,3-trifluoropropanoyl)-2,5-dihydro-1H-pyrrol-3-yl)-1H-pyrrolo[2,3-b]pyridin-6-yl)cyclopropanecarboxamide], the pIC50 is less than 6.70.

Consider `O=C(Nc1cc(C2=CCN(C(=O)CCC(F)(F)F)C2)c2cc[nH]c2n1)C1CC1` [Example 429, N-(4-(1-(4,4,4-trifluorobutanoyl)-2,5-dihydro-1H-pyrrol-3-yl)-1H-pyrrolo[2,3-b]pyridin-6-yl)cyclopropanecarboxamide], for which the pIC50 was less than 6.70.

Turning to `N#CC1(C(=O)N2CC=C(c3cc(NC(=O)C4CC4)nc4[nH]ccc34)C2)CC1` [Example 430, N-(4-(1-(1-cyanocyclopropane-1-carbonyl)-2,5-dihydro-1H-pyrrol-3-yl)-1H-pyrrolo[2,3-b]pyridin-6-yl)cyclopropanecarboxamide], the pIC50 was less than 6.70.

As to `CCNC(=O)Nc1ccc(-c2cc(NC(=O)C3CC3)nc3[nH]ccc23)cc1` [Example 431, N-(4-(4-(3-ethylureido)phenyl)-1H-pyrrolo[2,3-b]pyridin-6-yl)cyclopropanecarboxamide], the pIC50 was 6.70 to 7.70.

On to `O=C(Nc1cc(-c2ccc(NC(=O)N3CCOCC3)cc2)c2cc[nH]c2n1)C1CC1` [Example 432, N-(4-(6-(cyclopropanecarboxamido)-1H-pyrrolo[2,3-b]pyridin-4-yl)phenyl)morpholine-4-carboxamide], for which the pIC50 was 6.70 to 7.70.

As for `CCCCNC(=O)Nc1ccc(-c2cc(NC(=O)C3CC3)nc3[nH]ccc23)cc1` [Example 433, N-(4-(4-(3-butylureido)phenyl)-1H-pyrrolo[2,3-b]pyridin-6-yl)cyclopropanecarboxamide], the pIC50 is 6.70 to 7.70.

For the compound `O=C(NCC(F)(F)F)Nc1ccc(-c2cc(NC(=O)C3CC3)nc3[nH]ccc23)cc1` [Example 435, N-(4-(4-(3-(2,2,2-trifluoroethyl)ureido)phenyl)-1H-pyrrolo[2,3-b]pyridin-6-yl)cyclopropanecarboxamide], the pIC50 is 6.70 to 7.70.

Take `Cc1cc(NC(=O)NCC(F)(F)F)ccc1-c1cc(NC(=O)C2CC2)nc2[nH]ccc12` [Example 436, N-(4-(2-methyl-4-(3-(2,2,2-trifluoroethyl)ureido)phenyl)-1H-pyrrolo[2,3-b]pyridin-6-yl)cyclopropanecarboxamide]: the pIC50 is 6.70 to 7.70.

As for `O=C(Nc1ccc(-c2nc(NC(=O)C3CC3)nc3[nH]ccc23)cc1)NC1CC1` [Example 437, N-(4-(4-(3-cyclopropylureido)phenyl)-7H-pyrrolo[2,3-d]pyrimidin-2-yl)cyclopropanecarboxamide], the pIC50 was less than 6.70.

As for `CCNC(=O)Nc1ccc(-c2nc(NC(=O)C3CC3)nc3[nH]ccc23)cc1` [Example 438, N-(4-(4-(3-ethylureido)phenyl)-7H-pyrrolo[2,3-d]pyrimidin-2-yl)cyclopropanecarboxamide], the negative-log IC50 (pIC50) is less than 6.70.

As for `CCCCNC(=O)Nc1ccc(-c2nc(NC(=O)C3CC3)nc3[nH]ccc23)cc1` [Example 439, N-(4-(4-(3-butylureido)phenyl)-7H-pyrrolo[2,3-d]pyrimidin-2-yl)cyclopropanecarboxamide], the pIC50 was 6.70 to 7.70.

`O=C(Nc1ccc(-c2nc(NC(=O)C3CC3)nc3[nH]ccc23)cc1)Nc1ccc(F)c(F)c1` [Example 440, N-(4-(4-(3-(3,4-difluorophenyl)ureido)phenyl)-7H-pyrrolo[2,3-d]pyrimidin-2-yl)cyclopropanecarboxamide]: the pIC50 is 6.70 to 7.70.

On to `O=C(Nc1ccc(F)cc1)Nc1ccc(-c2nc(NC(=O)C3CC3)nc3[nH]ccc23)cc1` [Example 441, N-(4-(4-(3-(4-fluorophenyl)ureido)phenyl)-7H-pyrrolo[2,3-d]pyrimidin-2-yl)cyclopropanecarboxamide], for which the pIC50 was 6.70 to 7.70.

For `O=C(NCC(F)(F)F)NC1CC=C(c2cc(NC(=O)C3CC3)nc3[nH]ccc23)CC1` (centres unmarked) [Example 442, N-(4-(4-(3-(2,2,2-trifluoroethyl)ureido)cyclohex-1-en-1-yl)-1H-pyrrolo[2,3-b]pyridin-6-yl)cyclopropanecarboxamide], the pIC50 was greater than 7.70.

As for `O=C(Nc1cc(C2=CCN(C(=O)NCC(F)(F)F)CC2)c2cc[nH]c2n1)C1CC1` [Example 443, 4-(6-(cyclopropanecarboxamido)-1H-pyrrolo[2,3-b]pyridin-4-yl)-N-(2,2,2-trifluoroethyl)-3,6-dihydropyridine-1 (2H)-carboxamide], the pIC50 was greater than 7.70.

Take `CCCCNC(=O)N1CC=C(c2cc(NC(=O)C3CC3)nc3[nH]ccc23)CC1` [Example 444, N-butyl-4-(6-(cyclopropanecarboxamido)-1H-pyrrolo[2,3-b]pyridin-4-yl)-3,6-dihydropyridine-1 (2H)-carboxamide]: the pIC50 is 6.70 to 7.70.

Regarding `O=C(Nc1cc(C2=CCN(C(=O)N3CCS(=O)(=O)CC3)CC2)c2cc[nH]c2n1)C1CC1` [Example 445, N-(4-(1-(1,1-dioxidothiomorpholine-4-carbonyl)-1,2,3,6-tetrahydropyridin-4-yl)-1H-pyrrolo[2,3-b]pyridin-6-yl)cyclopropanecarboxamide], the pIC50 is 6.70 to 7.70.

Turning to `O=C(Nc1cc(C2=CCN(C(=O)N3CCOCC3)CC2)c2cc[nH]c2n1)C1CC1` [Example 446, N-(4-(1-(morpholine-4-carbonyl)-1,2,3,6-tetrahydropyridin-4-yl)-1H-pyrrolo[2,3-b]pyridin-6-yl)cyclopropanecarboxamide], the pIC50 is less than 6.70.

As to `N#CCNC(=O)N1CC=C(c2cc(NC(=O)C3CC3)nc3[nH]ccc23)CC1` [Example 447, N-(cyanomethyl)-4-(6-(cyclopropanecarboxamido)-1H-pyrrolo[2,3-b]pyridin-4-yl)-3,6-dihydropyridine-1 (2H)-carboxamide], the pIC50 is 6.70 to 7.70.

On to `O=C(Nc1cc(C2=CC3CCC(C2)N3C(=O)NCC(F)(F)F)c2cc[nH]c2n1)C1CC1` (centres unmarked) [Example 448, 3-(6-(cyclopropanecarboxamido)-1H-pyrrolo[2,3-b]pyridin-4-yl)-N-(2,2,2-trifluoroethyl)-8-azabicyclo[3.2.1]oct-2-ene-8-carboxamide], for which the negative-log IC50 (pIC50) was greater than 7.70.

Turning to `CCCCNC(=O)N1C2C=C(c3cc(NC(=O)C4CC4)nc4[nH]ccc34)CC1CC2` (centres unmarked) [Example 449, N-butyl-3-(6-(cyclopropanecarboxamido)-1H-pyrrolo[2,3-b]pyridin-4-yl)-8-azabicyclo[3.2.1]oct-2-ene-8-carboxamide], the pIC50 is 6.70 to 7.70.

With `O=C(Nc1cc(C2=CCN(C(=O)NC(C3CC3)C(F)(F)F)CC2)c2cc[nH]c2n1)C1CC1` (centres unmarked) [Example 450, 4-(6-(cyclopropanecarboxamido)-1H-pyrrolo[2,3-b]pyridin-4-yl)-N-(1-cyclopropyl-2,2,2-trifluoroethyl)-3,6-dihydropyridine-1 (2H)-carboxamide], the negative-log IC50 (pIC50) was less than 6.70.

In the case of `O=C(Nc1cc(C2=CCN(C(=O)n3ccnc3)CC2)c2cc[nH]c2n1)C1CC1` [Example 451, N-(4-(1-(1H-imidazole-1-carbonyl)-1,2,3,6-tetrahydropyridin-4-yl)-1H-pyrrolo[2,3-b]pyridin-6-yl)cyclopropanecarboxamide], the negative-log IC50 (pIC50) is 6.70 to 7.70.
